Data on 4 compounds can be found in patent US20240343699A1, “DERIVATIVES OF SUBSTITUTED MORPHOLINES AND USES THEREOF” (Supernus Pharmaceuticals, Inc., priority 2023, published 2024).

Like-named read-outs stand apart in the source and are kept apart here.

Data set [1] is described as follows: Plasma stability in rat plasma. In kind it is in vitro ADME, Sprague Dawley rat. The following applies: final concentration 2 μM. As for the experimental part:
(§1) A study was conducted to examine the plasma stability. Test Compounds: COMPOUND D, COMPOUND E, and Viloxazine. Positive controls: Enalapril and Propantheline.
A study was conducted to examine the bioanalytical data for compounds in Rat plasma. Frozen Sprague Dawley rat (male pooled) and human (mixed gender) plasma was utilized for the study. Test compounds were dissolved in dimethyl sulfoxide (DMSO) to make a 10 mM stock solution. A working solution was made with MeOH/water. COMPOUND E ([…]) was incubated with plasma in duplicates at 37° C. in a water bath. Sampling timepoints included 0, 5, 15, 30, and 60 min Enalapril and propantheline were used as positive control for rat and human plasma at 2 μM

A short description of a further data set: Binding assays. The following applies: 1.0E−05 M. As to the method:
A study was conducted to test COMPOUND D and COMPOUND E in Binding and enzyme and uptake assays.
COMPOUND D and COMPOUND E were tested at 1.0E-05 M.
The results are expressed as a percent of control specific binding and as a percent inhibition of control specific binding
The IC50 values (concentration causing a half-maximal inhibition of control specific binding) and Hill coefficients (nH) were determined by non-linear regression analysis of the competition curves generated with mean replicate values using Hill equation curve fitting […]
where Y=specific binding, A=left asymptote of the curve, D=right asymptote of the curve, C=compound concentration, C50=IC50, and nH=slope factor. This analysis was performed using software developed at Cerep (Hill software) and validated by comparison with data generated by the commercial software SigmaPlot® 4.0 for Windows® (© 1997 by SPSS Inc.).
The inhibition constants (Ki) were calculated using the Cheng Prusoff equation where L=concentration of radioligand in the assay, and KD=affinity of the radioligand for the receptor. A scatchard plot is used to determine the KD.
In Vitro Pharmacology. Results showing an inhibition (or stimulation for assays run in basal conditions) higher than […] were considered to represent significant effects of the test compounds. Results showing an inhibition (or stimulation) between 25% and 50% are indicative of weak to moderate effects. Results showing an inhibition (or stimulation) lower than […] were not considered significant and mostly attributable to variability of the signal around the control level.

The format of data set [2] is in vitro ADME, mouse. The following applies: mice Blood, wet ice bath, 5% Paraoxon ethyl as stabilizer; for % stability: 0.5 hr.
Data set [3] can be described thus: Preclinical PK: plasma viloxazine after PO dosing of COMPOUND D or COMPOUND E. In kind it is in vivo, mouse. The following applies: COMPOUND E PO 20.99 mg/kg, individual mice. As to the method: A study was conducted for preclinical PK performance of COMPOUND D and COMPOUND E. Please see below for details on the study, with fasted mice orally dosed with COMPOUND D or COMPOUND E.
Relevant data are summarized in below tables (ND=Not determined (Parameters not determined due to inadequately defined terminal elimination phase. BQL=Below the lower limit of quantitation (LLOQ). If the adjusted rsq (linear regression coefficient of the concentration value on the terminal phase) is less than 0.9, T1/2 might not be accurately estimated. If the % AUCExtra>20%, AUC0-inf, Cl, MRT0-inf and Vdss might not be accurately estimated. If the % AUMCExtra>20%, MRT0-inf and Vdss might not be accurately estimated. a: Bioavailability (%) was calculated using AUC0-inf (% AUCExtra<20%) or AUC0-last (% AUCExtra>20%) with nominal dose)

The nature of data set [4]: In vitro stability in human plasma. In kind it is in vitro ADME. The following applies: for half-life at 2 μM / % Remaining / Analyte Peak area/IS Peak area Mean (N = 2): human plasma, 2.0 μM. As for the experimental part: Test Article Solutions: COMPOUND A, COMPOUND B and COMPOUND C stock solutions at 10 mM were prepared in dimethyl sulfoxide (DMSO). Further dilution with DMSO was made to prepare 2.0 mM. The working solutions of 50 μM was prepared with 20% MeOH/water. […] Prior to use, the stock solutions were brought to room temperature and thoroughly mixed and prepared same as described above.
Incubations were conducted in 96-well plate format. The time points defined for this study are 0, 5, 15, 30 and 60 minutes.
An appropriate volume of plasma from test species were added to a 96-deep well plate, and COMPOUND A, COMPOUND B and COMPOUND C working solution was spiked into the plasma in duplicate to achieve a final concentration of 2.0 μM. For positive controls, the rat plasma was spiked with enalapril, the dog plasma spiked with bisacodyl and the human plasma was spiked with propantheline. All spiked plasma sample plates were incubated in a water bath at 37° C. with shaking.
At the end of each time point, samples were immediately quenched with three volume of cold quenching solution.
as §1

Data set [5] is classed as in vitro ADME. The following applies: Rat plasma, wet ice bath. As to the method: A study was conducted to examine the bioanalytical data for compounds in Rat plasma. […] Frozen Sprague Dawley rat (male pooled) and human (mixed gender) plasma was utilized for the study. Test compounds were dissolved in dimethyl sulfoxide (DMSO) to make a 10 mM stock solution. A working solution was made with MeOH/water. […]

For another data set, the system named is immobility. Put plainly: Tail suspension test (TST).

Procedure for immobility: The tail suspension test is an experimental method used in scientific research to measure a state of being helpless in rodents, especially in mice. It is based on the observation that if a mouse is subjected to short term inescapable stress then the mouse will stop struggling. Immobility is quantified by measuring the amount of time lacking whole body activity.
The immobilized time in the last 4 min of the TST, which indicated depression-like behavior, was quantified using offline video manual scoring in a blinded manner.
Animals. Adult (7 to 8 weeks) male mice (C57Bl/6, Charles River Laboratories) were used in the study. Upon arrival, animals were group-housed (5/cage) with access to food and water ad libitum. Animals were maintained on a 12/12-hour light/dark cycle in a temperature—(22±2° C.) and humidity—(approx. 50%) controlled room. Animals were numbered consecutively by tail marks. Each cage was identified by a card indicating the study number, sex, animal numbers and date of birth.
Test article formulations were prepared fresh based on weight-to-volume in the vehicle on each dosing day. […] The appearance of the formulations was clear, with no precipitations. […] A vehicle group was included for comparison.
Monitoring. A piezoelectric sensor operated by the SmartCage system was utilized and video recording was conducted for scoring. After animals acclimated to the testing room, an individual mouse's tail was placed onto the piezoelectric sensor-board and the mouse was hung upside down, which signaled the immediate start of the recording of struggle activity, and it lasted for 6 min. The mouse was then taken off and returned to the home cage. The immobilized time, indicating depression-like behavior, was quantified using manual scoring of the video recordings for the period from 120 seconds to 360 seconds during TST. The percent immobility time was calculated: (immobility time/240 seconds)*100.
The immobilized time in the last 4 min of the TST, which indicates depression-like behavior, was quantified using offline video manual scoring in a blinded manner.
Animals. Adult (8 weeks, approximately 20-25 g) male mice (C57Bl/6, Vendor: Charles River Laboratories) were used in the study. Upon arrival, animals were group-housed (5/cage) with access to food and water ad libitum. Animals were maintained on a 12/12-hour light/dark cycle in a temperature—(22±2° C.) and humidity—(35-50%) controlled room. Animals were numbered consecutively by tail ID. Each cage was identified by a colored card indicating the study number, sex, animal numbers and date of birth.
Test article formulations were prepared fresh based on weight-to-volume in the vehicle on dosing day. […] The appearance of the formulations was clear, with no precipitations.
The tail suspension test is an experimental method used in scientific research to measure a state of being helpless in rodents, especially in mice. It is based on the observation that if a mouse is subjected to short term inescapable stress then the mice will give up struggling. “Immobility” is quantified by measuring the amount of time during which the animal has no whole-body activity.
Tail Suspension Test (TST). A piezoelectric sensor operated by the SmartCage system was utilized and video recording was conducted for scoring. Once animals were acclimated to the testing room, the TST was initiated by placing the tail of the test mouse onto the piezoelectric sensor-board and hanging the mouse upside down. The recording period was initiated once the mouse was upside down and lasted for 6 min. After the recording period, the mouse was removed from the recording device and returned to its home cage.

Regarding `CCOc1ccccc1OCC1CN(C(=O)OC(OC(=O)[C@@H](N)C(C)C)C(C)C)CCO1` (stereo partly shown) [COMPOUND E], the “% Remaining at 60 min (Mean)” value in data set [1] is reported as 0.0%; in data set [4] (Human plasma, final concentration 2 μM), 90.3%. Moreover, the “inhibition, 5-HT2B(h) (agonist radioligand)” value in “Binding assays” stood at 80.2%. Also, the “inhibition, 5-HT2C(h) (agonist radioligand)” value in the data set “Binding assays” was determined as 54.1%. In the data set “Binding assays”, the “inhibition, Ca^2+ channel (L, diltiazem site) (benzothiazepines) (antagonist radioligand)” value came out at 78.9%. For the same compound, the “inhibition, Ca^2+ channel (L, verapamil site) (phenylalkylamine) (antagonist radioligand)” value in “Binding assays” is listed as 50.7%. In addition, the “inhibition, MT3 (ML2) (agonist radioligand)” value in “Binding assays” turned out to be 51.1%. For the same compound, the “inhibition, Na^+ channel (site 2) (antagonist radioligand)” value in “Binding assays” is given as 84.5%. Besides, the Mean peak area was 2.903 in data set [2] (HQC, 0 hr sample); 3.00 in data set [2] (HQC, 0.5 hr sample); 0.00933 in data set [2] (LQC, 0 hr sample); 0.00806 in data set [2] (LQC, 0.5 hr sample). For the same compound, the “% stability” value is 103% in data set [2] (HQC); 86.3% in data set [2] (LQC); 79.5% in data set [5] (5% Paraoxon ethyl as stabilizer, HQC, 1 hr); 62.9% in data set [5] (5% Paraoxon ethyl as stabilizer, HQC, 2 hr); 68.3% in data set [5] (5% Paraoxon ethyl as stabilizer, LQC, 1 hr); 63.7% in data set [5] (5% Paraoxon ethyl as stabilizer, LQC, 2 hr). Further, the “% stability” value turned out to be 20.9% in data set [5] (No stabilizer, HQC, 1 hr); 2.5% in data set [5] (No stabilizer, HQC, 2 hr); 28.2% in data set [5] (No stabilizer, LQC, 1 hr); 5.3% in data set [5] (No stabilizer, LQC, 2 hr). Besides, the “Plasma concentration of Viloxazine” value in data set [3] (8.00 h) and in data set [3] (24.0 h) was “BQL” each time. Also, the “Mean peak area ratio” value came to 3.38 in data set [5] (5% Paraoxon ethyl as stabilizer, HQC, 0 hr sample); 2.69 in data set [5] (5% Paraoxon ethyl as stabilizer, HQC, 1 hr sample); 2.13 in data set [5] (5% Paraoxon ethyl as stabilizer, HQC, 2 hr sample); 0.00882 in data set [5] (5% Paraoxon ethyl as stabilizer, LQC, 0 hr sample); 0.00602 in data set [5] (5% Paraoxon ethyl as stabilizer, LQC, 1 hr sample); 0.00562 in data set [5] (5% Paraoxon ethyl as stabilizer, LQC, 2 hr sample). Further, the “Mean peak area ratio” value in data set [5] (No stabilizer, HQC, 0 hr sample) was 1.58; in data set [5] (No stabilizer, HQC, 1 hr sample), 0.33; in data set [5] (No stabilizer, HQC, 2 hr sample), 0.04; in data set [5] (No stabilizer, LQC, 0 hr sample), 0.00472; in data set [5] (No stabilizer, LQC, 1 hr sample), 0.00133; in data set [5] (No stabilizer, LQC, 2 hr sample), 0.00025.
For `CCOc1ccccc1OC[C@@H]1CN(C(=O)OC(C)OC(=O)[C@@H](N)C(C)C)CCO1` (stereo partly shown) [COMPOUND A], in the data set with immobility (COMPOUND A 32 mg/kg PO), the “decrease of immobility compared to vehicle” value stood at 30%. Moreover, the percent immobility time result in the data set on immobility (COMPOUND A 4, 8, 16, 32 mg/kg PO, ANOVA p=0.006) was “significant reduction in immobility”. In data set [4], this compound came in with a half-life at 2 μM of 1.58 h. In addition, the “% Remaining” value was determined as 100% in data set [4] (0 min), 107% in data set [4] (5 min), 93.1% in data set [4] (15 min) and 80.8% in data set [4] (30 min). Besides, the “Analyte Peak area/IS Peak area Mean (N = 2)” value in data set [4] (0 min) was 2.31; in data set [4] (5 min), 2.46; in data set [4] (15 min), 2.15; in data set [4] (30 min), 1.86; in data set [4] (60 min) it was 1.57.
As to `CCOc1ccccc1OC[C@@H]1CN(C(=O)OC(OC(=O)[C@H](N)C(C)C)C(C)C)CCO1` (stereo partly shown) [COMPOUND C], the percent immobility time result in the data set with immobility (COMPOUND C 30 mg/kg PO, dose-response study, vs vehicle) is “tendency in decreasing immobility”; in the data set on immobility (COMPOUND C 30 mg/kg PO, follow-up study, vs vehicle (p=0.43)), “no significant reduction in immobility”; in the data set on immobility (COMPOUND C 10, 30, 60, 90 mg/kg PO 30 min prior, ANOVA across all doses), “no significant reduction in immobility”. In data set [4], this compound showed a half-life at 2 μM of more than 3.12 h. The “% Remaining” value in data set [4] (0 min) was 100%; in data set [4] (5 min), 92.3%; in data set [4] (15 min), 88.3%; in data set [4] (30 min), 86.1%; in data set [4] (60 min) it was 84.4%. Moreover, the “Analyte Peak area/IS Peak area Mean (N = 2)” value in data set [4] (0 min) came to 1.99; in data set [4] (5 min), 1.84; in data set [4] (15 min), 1.76; in data set [4] (30 min), 1.71; in data set [4] (60 min), 1.68.
In the case of `CCOc1ccccc1OC[C@@H]1CN(C(=O)OC(OC(=O)[C@@H](N)C(C)C)C(C)C)CCO1` (stereo partly shown) [COMPOUND B], the half-life at 2 μM in data set [4] was more than 3.12 h. Moreover, the “% Remaining” value in data set [4] (0 min) is 100%; in data set [4] (5 min), 90.6%; in data set [4] (15 min), 94.5%; in data set [4] (30 min), 87.1%; in data set [4] (60 min), 91.5%. Besides, the “Analyte Peak area/IS Peak area Mean (N = 2)” value in data set [4] (0 min) turned out to be 1.90; in data set [4] (5 min), 1.72; in data set [4] (15 min), 1.79; in data set [4] (30 min) it was 1.65; in data set [4] (60 min), 1.73.

As a reminder, the half-life is the time needed for the level to fall by half in the phase considered. Higher therefore signals slow decline.
